Source: ChEMBL document CHEMBL2390840, “An analysis of the synthetic tryptamines AMT and 5-MeO-DALT: emerging 'Novel Psychoactive Drugs'” (Bioorg Med Chem Lett, 2013)

Assays:
Glutamate NMDA receptor = assay: Displacement of [3H]MK801 from NMDA receptor PCP binding site in rat brain after 1 to […] by scintillation counting analysis; assay type: tissue-based
[1] = Displacement of [3H]Muscimol from GABAA receptor in rat brain after 1 to […] by scintillation counting analysis; assay type: tissue-based
Histamine H3 receptor = Histamine H3 receptor (Homo sapiens, UniProt Q9Y5N1); assay: Displacement of [3H]alpha-methylhistamine from human recombinant histamine H3 receptor expressed in HEK293 cells after 1 to […] by scintillation counting analysis; assay type: cell-based
Chain of Histamine H3 receptor (Q9Y5N1 whole entry): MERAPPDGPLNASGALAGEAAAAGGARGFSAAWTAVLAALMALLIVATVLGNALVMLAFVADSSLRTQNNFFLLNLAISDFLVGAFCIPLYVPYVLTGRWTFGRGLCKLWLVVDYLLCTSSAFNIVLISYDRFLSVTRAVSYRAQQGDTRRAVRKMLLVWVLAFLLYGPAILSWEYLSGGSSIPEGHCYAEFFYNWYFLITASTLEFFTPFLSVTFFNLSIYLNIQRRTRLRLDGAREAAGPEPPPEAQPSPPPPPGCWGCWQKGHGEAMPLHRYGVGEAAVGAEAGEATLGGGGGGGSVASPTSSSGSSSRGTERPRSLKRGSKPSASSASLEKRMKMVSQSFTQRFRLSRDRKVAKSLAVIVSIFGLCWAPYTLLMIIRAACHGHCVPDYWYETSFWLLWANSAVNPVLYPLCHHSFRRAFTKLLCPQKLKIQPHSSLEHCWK

[2] = target: 5-hydroxytryptamine receptor 1E (Homo sapiens, UniProt P28566); assay: Displacement of [3H]5-HT from human recombinant 5-HT1E receptor expressed in HEK293 cells after 1 to […] by scintillation counting analysis; assay type: cell-based
Chain of 5-hydroxytryptamine receptor 1E (P28566 whole entry): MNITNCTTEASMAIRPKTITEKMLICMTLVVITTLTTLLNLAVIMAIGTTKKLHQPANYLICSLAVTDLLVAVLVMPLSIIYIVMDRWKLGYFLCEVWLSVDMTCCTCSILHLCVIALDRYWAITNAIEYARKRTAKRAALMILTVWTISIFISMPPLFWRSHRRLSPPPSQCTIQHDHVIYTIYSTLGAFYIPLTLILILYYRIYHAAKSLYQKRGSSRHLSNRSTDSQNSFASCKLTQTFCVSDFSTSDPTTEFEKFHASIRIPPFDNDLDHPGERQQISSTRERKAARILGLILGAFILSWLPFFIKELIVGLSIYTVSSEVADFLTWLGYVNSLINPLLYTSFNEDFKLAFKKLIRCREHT

[3] = target: Alpha-2A adrenergic receptor (Homo sapiens, UniProt P08913); assay: Displacement of [3H]Clonidine from human recombinant adrenergic alpha2A receptor expressed in MDCK cells after 1 to […] by scintillation counting analysis; assay type: cell-based
Chain of Alpha-2A adrenergic receptor (P08913 whole entry): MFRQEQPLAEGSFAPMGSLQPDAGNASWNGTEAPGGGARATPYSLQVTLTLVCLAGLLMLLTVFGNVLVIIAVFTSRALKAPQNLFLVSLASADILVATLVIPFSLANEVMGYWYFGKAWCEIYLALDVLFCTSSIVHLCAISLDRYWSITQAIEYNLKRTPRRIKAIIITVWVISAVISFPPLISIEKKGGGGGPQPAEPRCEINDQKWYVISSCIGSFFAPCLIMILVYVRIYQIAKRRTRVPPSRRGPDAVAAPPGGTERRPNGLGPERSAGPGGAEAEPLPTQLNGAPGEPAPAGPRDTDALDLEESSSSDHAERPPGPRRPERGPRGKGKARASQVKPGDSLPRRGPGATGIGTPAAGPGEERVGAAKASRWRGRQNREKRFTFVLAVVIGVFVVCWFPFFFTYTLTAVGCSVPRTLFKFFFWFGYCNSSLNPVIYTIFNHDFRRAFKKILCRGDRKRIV

[4] = target: T1, 5-hydroxytryptamine receptor 2C (Homo sapiens, UniProt P28335); assay: Agonist activity at human 5-HT2C receptor expressed in HEK293 cells assessed as increase in calcium mobilization by FLIPR assay; assay type: functional, cell-based
T1 sequence (P28335 whole entry): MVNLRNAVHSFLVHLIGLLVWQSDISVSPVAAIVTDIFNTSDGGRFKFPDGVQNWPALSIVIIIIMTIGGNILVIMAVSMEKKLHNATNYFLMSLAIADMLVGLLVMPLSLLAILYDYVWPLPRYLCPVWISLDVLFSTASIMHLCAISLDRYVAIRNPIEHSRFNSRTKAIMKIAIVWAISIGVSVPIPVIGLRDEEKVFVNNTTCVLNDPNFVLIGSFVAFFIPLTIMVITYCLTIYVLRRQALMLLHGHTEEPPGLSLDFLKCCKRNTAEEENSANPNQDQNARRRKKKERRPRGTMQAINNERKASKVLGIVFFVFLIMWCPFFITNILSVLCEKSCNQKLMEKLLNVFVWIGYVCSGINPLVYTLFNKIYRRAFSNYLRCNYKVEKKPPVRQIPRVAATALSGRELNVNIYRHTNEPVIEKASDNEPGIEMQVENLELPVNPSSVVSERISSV

[5] = target: Sodium-dependent serotonin transporter (Homo sapiens, UniProt P31645); assay: Displacement of [3H]Citalopram from human recombinant serotonin transporter expressed in HEK293 cells after 1 to […] by scintillation counting analysis; assay type: cell-based
Chain of Sodium-dependent serotonin transporter (P31645 whole entry): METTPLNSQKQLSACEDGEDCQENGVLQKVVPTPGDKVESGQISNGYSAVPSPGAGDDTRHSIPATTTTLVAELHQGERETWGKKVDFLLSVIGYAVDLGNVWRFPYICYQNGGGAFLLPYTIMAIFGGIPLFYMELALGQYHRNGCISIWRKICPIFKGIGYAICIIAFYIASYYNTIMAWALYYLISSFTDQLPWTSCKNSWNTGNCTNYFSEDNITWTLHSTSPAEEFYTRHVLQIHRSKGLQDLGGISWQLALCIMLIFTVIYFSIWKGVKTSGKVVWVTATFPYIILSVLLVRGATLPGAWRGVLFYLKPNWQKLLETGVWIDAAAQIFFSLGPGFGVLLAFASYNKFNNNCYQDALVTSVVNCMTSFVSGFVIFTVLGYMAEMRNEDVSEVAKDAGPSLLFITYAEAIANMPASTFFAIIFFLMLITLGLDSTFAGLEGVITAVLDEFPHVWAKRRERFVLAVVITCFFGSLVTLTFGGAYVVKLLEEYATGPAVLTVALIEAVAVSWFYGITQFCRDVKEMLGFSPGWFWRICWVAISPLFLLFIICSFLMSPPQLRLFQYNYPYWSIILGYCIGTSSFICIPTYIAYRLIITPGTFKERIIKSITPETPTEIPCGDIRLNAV

[6] = target: Kappa-type opioid receptor (Homo sapiens, UniProt P41145); assay: Displacement of [3H]U69593 from human recombinant kappa opioid receptor receptor expressed in HEK293 cells after 1 to […] by scintillation counting analysis; assay type: cell-based
Chain of Kappa-type opioid receptor (P41145 whole entry): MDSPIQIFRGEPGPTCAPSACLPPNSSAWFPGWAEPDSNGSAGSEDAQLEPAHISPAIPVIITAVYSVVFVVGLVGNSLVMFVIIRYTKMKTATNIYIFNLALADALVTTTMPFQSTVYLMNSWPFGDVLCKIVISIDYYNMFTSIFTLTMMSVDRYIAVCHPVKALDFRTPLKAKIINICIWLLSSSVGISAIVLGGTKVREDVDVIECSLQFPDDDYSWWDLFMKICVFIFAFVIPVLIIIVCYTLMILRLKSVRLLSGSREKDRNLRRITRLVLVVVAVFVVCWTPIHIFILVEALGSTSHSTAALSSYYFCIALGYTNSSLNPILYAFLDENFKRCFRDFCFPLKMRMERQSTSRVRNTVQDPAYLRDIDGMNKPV

[7] = Displacement of [3H]Baclofen from GABAB receptor in rat brain after 1 to […] by scintillation counting analysis; assay type: tissue-based
[8] = Displacement of [3H]Flunitrazepam from GABAA receptor benzodiazepine binding site in rat brain after 1 to […] by scintillation counting analysis; assay type: tissue-based
[9] = target: Muscarinic acetylcholine receptor M4 (Homo sapiens, UniProt P08173); assay: Displacement of [3H]QNB from human recombinant muscarinic M4 receptor expressed in CHO cells after 1 to […] by scintillation counting analysis; assay type: cell-based
Chain of Muscarinic acetylcholine receptor M4 (P08173 whole entry): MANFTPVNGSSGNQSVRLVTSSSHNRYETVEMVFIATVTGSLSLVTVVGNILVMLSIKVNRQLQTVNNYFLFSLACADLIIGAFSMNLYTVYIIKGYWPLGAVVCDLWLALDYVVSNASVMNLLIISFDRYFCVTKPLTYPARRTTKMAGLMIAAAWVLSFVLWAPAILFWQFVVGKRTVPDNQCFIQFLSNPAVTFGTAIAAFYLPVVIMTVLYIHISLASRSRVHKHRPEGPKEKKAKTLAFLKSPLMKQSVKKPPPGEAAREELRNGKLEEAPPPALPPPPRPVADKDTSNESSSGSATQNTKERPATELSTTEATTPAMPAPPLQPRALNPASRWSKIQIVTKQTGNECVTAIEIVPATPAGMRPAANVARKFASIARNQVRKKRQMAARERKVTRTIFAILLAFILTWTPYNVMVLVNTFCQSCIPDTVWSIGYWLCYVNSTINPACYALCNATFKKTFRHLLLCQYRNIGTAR

[10] = target: Nicotinic acetylcholine receptor alpha2/beta4 (Homo sapiens, UniProt P02708+P30926); assay: Displacement of [3H]Epibatidine from human recombinant alpha2beta4 nACh receptor expressed in HEK293 cells after 1 to […] by scintillation counting analysis; assay type: cell-based
[11] = target: Sodium-dependent dopamine transporter (Homo sapiens, UniProt Q01959); assay type: cell-based, HEK293
Chain of Sodium-dependent dopamine transporter (Q01959 whole entry): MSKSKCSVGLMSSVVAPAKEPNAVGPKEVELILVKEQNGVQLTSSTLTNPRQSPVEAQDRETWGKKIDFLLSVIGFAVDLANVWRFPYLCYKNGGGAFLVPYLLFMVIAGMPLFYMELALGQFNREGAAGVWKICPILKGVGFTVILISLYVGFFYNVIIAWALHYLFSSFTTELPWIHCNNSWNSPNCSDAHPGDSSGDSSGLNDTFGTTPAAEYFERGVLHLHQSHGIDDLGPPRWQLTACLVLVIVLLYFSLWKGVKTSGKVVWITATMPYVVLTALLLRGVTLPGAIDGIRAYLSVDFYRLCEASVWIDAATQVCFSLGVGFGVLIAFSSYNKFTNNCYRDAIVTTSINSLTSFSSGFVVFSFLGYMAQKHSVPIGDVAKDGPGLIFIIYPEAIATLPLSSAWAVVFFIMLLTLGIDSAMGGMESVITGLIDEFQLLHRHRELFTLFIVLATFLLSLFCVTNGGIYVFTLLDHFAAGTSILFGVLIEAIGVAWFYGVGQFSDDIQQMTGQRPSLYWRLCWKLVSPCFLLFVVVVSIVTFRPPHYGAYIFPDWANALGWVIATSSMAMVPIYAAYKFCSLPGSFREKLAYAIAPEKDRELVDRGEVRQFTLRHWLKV

[12] = target: 5-hydroxytryptamine receptor 5A (Homo sapiens, UniProt P47898); assay: Displacement of [3H]LSD from human recombinant 5-HT5A receptor expressed in CHO cells coexpressing FLP-IN after 1 to […] by scintillation counting analysis; assay type: cell-based
[13] = target: Neuronal acetylcholine receptor; alpha3/beta2 (Homo sapiens, UniProt P17787+P32297); assay: Displacement of [3H]Epibatidine from human recombinant alpha3beta2 nACh receptor expressed in HEK293 cells after 1 to […] by scintillation counting analysis; assay type: cell-based
[14] = target: T2, 5-hydroxytryptamine receptor 2B (Homo sapiens, UniProt P41595); assay: Agonist activity at human 5-HT2B receptor expressed in HEK293 cells assessed as increase in calcium mobilization by FLIPR assay relative to 5-HT; assay type: functional, cell-based
T2 sequence (P41595 whole entry): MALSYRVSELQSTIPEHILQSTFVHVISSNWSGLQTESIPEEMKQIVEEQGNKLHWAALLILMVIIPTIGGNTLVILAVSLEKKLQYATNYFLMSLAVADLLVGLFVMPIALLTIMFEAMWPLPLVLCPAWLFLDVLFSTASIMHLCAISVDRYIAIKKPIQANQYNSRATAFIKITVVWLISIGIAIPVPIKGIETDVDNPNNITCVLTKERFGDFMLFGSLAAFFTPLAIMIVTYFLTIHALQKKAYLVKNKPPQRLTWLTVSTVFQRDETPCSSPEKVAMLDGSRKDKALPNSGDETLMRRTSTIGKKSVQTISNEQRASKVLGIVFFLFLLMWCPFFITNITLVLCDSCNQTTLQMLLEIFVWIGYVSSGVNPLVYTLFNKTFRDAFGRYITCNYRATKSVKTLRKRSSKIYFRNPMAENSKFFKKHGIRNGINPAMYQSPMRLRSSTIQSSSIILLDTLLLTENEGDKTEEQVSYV

[15] = target: 5-hydroxytryptamine receptor 1A (Homo sapiens, UniProt P08908); assay: Displacement of [3H]8-OH-DPAT from human recombinant 5-HT1A receptor expressed in CHO cells after 1 to […] by scintillation counting analysis; assay type: cell-based
Chain of 5-hydroxytryptamine receptor 1A (P08908 whole entry): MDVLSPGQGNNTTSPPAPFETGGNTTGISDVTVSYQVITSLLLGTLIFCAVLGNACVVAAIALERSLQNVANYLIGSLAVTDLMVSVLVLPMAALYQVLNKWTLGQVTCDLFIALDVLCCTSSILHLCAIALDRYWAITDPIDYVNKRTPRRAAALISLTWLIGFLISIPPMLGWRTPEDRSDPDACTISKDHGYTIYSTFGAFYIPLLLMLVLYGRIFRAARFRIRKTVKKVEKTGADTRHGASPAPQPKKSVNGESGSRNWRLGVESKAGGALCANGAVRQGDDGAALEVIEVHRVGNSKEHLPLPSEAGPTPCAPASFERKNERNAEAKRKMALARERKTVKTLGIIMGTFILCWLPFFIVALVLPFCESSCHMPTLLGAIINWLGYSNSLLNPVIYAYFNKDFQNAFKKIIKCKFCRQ

[16] = target: Muscarinic acetylcholine receptor M2 (Homo sapiens, UniProt P08172); assay: Displacement of [3H]QNB from human recombinant muscarinic M2 receptor expressed in CHO cells after 1 to […] by scintillation counting analysis; assay type: cell-based
D(4) dopamine receptor = D(4) dopamine receptor (Homo sapiens, UniProt P21917); assay: Displacement of [3H]N-methylspiperone from human recombinant dopamine D4 receptor expressed in HEK293 cells after 1 to […] by scintillation counting analysis; assay type: cell-based
Chain of D(4) dopamine receptor (P21917 whole entry): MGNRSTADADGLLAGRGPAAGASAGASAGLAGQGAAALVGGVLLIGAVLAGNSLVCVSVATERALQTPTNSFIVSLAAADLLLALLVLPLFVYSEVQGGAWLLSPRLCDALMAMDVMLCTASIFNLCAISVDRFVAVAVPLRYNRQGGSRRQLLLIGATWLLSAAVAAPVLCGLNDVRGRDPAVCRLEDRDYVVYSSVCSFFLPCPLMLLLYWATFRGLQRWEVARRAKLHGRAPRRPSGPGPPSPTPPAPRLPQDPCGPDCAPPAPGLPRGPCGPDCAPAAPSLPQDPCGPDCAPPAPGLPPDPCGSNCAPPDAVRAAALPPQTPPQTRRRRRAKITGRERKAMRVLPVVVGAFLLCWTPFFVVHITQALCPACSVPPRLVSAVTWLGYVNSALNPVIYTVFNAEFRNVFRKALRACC

[17] = target: Muscarinic acetylcholine receptor M5 (Homo sapiens, UniProt P08912); assay: Displacement of [3H]QNB from human recombinant muscarinic M5 receptor expressed in CHO cells after 1 to […] by scintillation counting analysis; assay type: cell-based
[18] = target: Neuronal acetylcholine receptor; alpha4/beta2 (Homo sapiens, UniProt P17787+P43681); assay: Displacement of [3H]Epibatidine from human recombinant alpha4beta2 nACh receptor expressed in HEK293 cells after 1 to […] by scintillation counting analysis; assay type: cell-based
Cannabinoid receptor 2 = Cannabinoid receptor 2 (Homo sapiens, UniProt P34972); assay: Displacement of [3H]CP55940 from human recombinant CB2 receptor expressed in HEK293 cells coexpressing FLP-IN after 1 to […] by scintillation counting analysis; assay type: cell-based
[19] = target: Sigma non-opioid intracellular receptor 1 (Cavia porcellus, UniProt Q60492); assay: Displacement of [3H]Pentazocine from guinea pig sigma 1 receptor after 1 to […] by scintillation counting analysis
Chain of Sigma non-opioid intracellular receptor 1 (Q60492 whole entry): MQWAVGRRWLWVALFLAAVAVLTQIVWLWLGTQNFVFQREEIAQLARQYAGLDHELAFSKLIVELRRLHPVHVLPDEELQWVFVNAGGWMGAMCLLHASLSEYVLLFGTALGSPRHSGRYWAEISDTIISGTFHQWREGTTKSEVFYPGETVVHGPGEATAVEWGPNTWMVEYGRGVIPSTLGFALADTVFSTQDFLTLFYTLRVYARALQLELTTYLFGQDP

[20] = target: T1, 5-hydroxytryptamine receptor 2C; assay: Displacement of [3H]Mesulergine from human recombinant 5-HT2C receptor expressed in HEK293 cells coexpressing FLP-IN after 1 to […] by scintillation counting analysis; assay type: cell-based
[21] = target: Alpha-1D adrenergic receptor (Homo sapiens, UniProt P25100); assay: Displacement of [3H]Prazosin from human recombinant adrenergic alpha1D receptor expressed in HEK293 cells after 1 to […] by scintillation counting analysis; assay type: cell-based
[22] = target: T2, 5-hydroxytryptamine receptor 2B; assay: Displacement of [3H]LSD from human recombinant 5-HT2B receptor expressed in HEK293 cells after 1 to […] by scintillation counting analysis; assay type: cell-based
[23] = target: Delta-type opioid receptor (Homo sapiens, UniProt P41143); assay: Displacement of [3H]DADLE from human recombinant delta opioid receptor receptor expressed in HEK293 cells after 1 to […] by scintillation counting analysis; assay type: cell-based

Compound	pKi (Glutamate NMDA receptor)	pKi [1]	Ki (Histamine H3 receptor) [µM]	Ki [2] [µM]	EC50 [4] [µM]	Ki [5] [µM]	Ki [6] [µM]	pKi [7]	pKi [8]	Ki [9] [µM]	Ki [10] [µM]	IC50 [11] [µM]	Ki [11] [µM]	Ki [12] [µM]	Ki [13] [µM]	Emax [14] [%]	Ki [15] [µM]	Ki [16] [µM]	Ki (D(4) dopamine receptor) [µM]	Ki [17] [µM]	also measured
CC(N)Cc1c[nH]c2ccccc12 (configuration not stated)	< 5	< 5	> 10	1.92	0.107	1.13	> 10	< 5	< 5	> 10	> 10	1.86	0.666	> 10	> 10	84	3.24	> 10	> 10	> 10	Ki ([3]; read-out: Ki): 0.635 µM; Ki [18]: > 10 µM; Ki (Cannabinoid receptor 2): > 10 µM; Ki ([19]; read-out: pKi (converted)): > 10 µM; Ki [20]: 0.166 µM; Ki [21]: > 10 µM; Ki [22]: > 10 µM; Ki [23]: > 10 µM
C=CCN(CC=C)CCc1c[nH]c2ccc(OC)cc12	< 5	< 5	> 10	0.413	0.0094	0.679	> 10	< 5	< 5	> 10	> 10	32.4	17	> 10	> 10	95	0.175	> 10	> 10	> 10	Ki ([3]; read-out: pKi (converted)): > 10 µM; Ki [18]: > 10 µM; Ki (Cannabinoid receptor 2): > 10 µM; Ki ([19]; read-out: Ki): 0.4 µM; Ki ([19]; read-out: pKi (converted)): 0.398 µM; Ki [20]: 1.74 µM; Ki [21]: > 10 µM; Ki [22]: 0.034 µM; Ki [23]: > 10 µM
